Paper PMC8653067 (ChemMedChem, 2021)
“Also recorded” adds a separate entry of the source. Like-named read-outs stand apart in the source and are kept apart here.

Assays:
[1] = target: T1, PLpro from SARS-CoV-2 (Severe acute respiratory syndrome coronavirus 2, UniProt P0DTD1); format: biochemical; details: for IC50: read-out: IC50 (µM) determined using Z-LRGG-AMC as a PLpro substrate
[2] = target: T1, PLpro from SARS-CoV-2; format: biochemical
[3] = target: T1, PLpro from SARS-CoV-2; format: biochemical; details: for IC50: read-out: IC50 (µM) determined using Ub-AMC as a PLpro substrate, 20 nM PLpro, 5 μM Ub-AMC, triplicates; for Extent of PLpro inhibition in IC50 assay (in words): 5 μM Ub-AMC substrate
[4] = target: ubiquitin C-terminal hydrolase L3; details: read-out: reported IC50 for ubiquitin C-terminal hydrolase L3; cited from earlier work
[5] = 20 nM PLpro, 50 μM Z-LRGG-AMC, triplicates
[6] = 200 μM inhibitor, 20 nM PLpro, 50 μM Z-LRGG-AMC
[7] = Z-LRGG-AMC substrate, highest tested concentration 200 μM

| Compound | IC50 [1, 5] [µM] | PLpro inhibition in initial screening [2, 6] | other results |
| --- | --- | --- | --- |
| CC(=O)O/N=C1\C(=O)N(Cc2cc(Cl)ccc2Cl)c2ccc(Cl)cc21 [LDN-57444] | > 100 | inhibited PLpro partially but at significant levels |  |
| Cc1ccc(/C=C2\CNC/C(=C\c3ccc(C)cc3)C2=O)cc1 [NSC63283] | > 100 |  |  |
| N#CSc1cc(SC#N)c(N)nc1N [PR-619] |  | significant quenching effects leading to negative signals | Extent of PLpro inhibition in IC50 characterization (in words) [1, 7]: strongly inhibited PLpro at concentrations above 1 μM; also recorded: can fully inhibit PLpro at 200 µM; IC50 [3]: 12.9 ± 2.4 µM |
| O=C1c2ccccc2C(=O)c2oc(-c3ccccc3)nc21 [SJB2–043] |  | inhibited PLpro partially but at significant levels | Extent of PLpro inhibition in IC50 characterization (in words) [1, 7]: only partial inhibition of PLpro; Extent of PLpro inhibition in IC50 characterization (in words) ([1]; Z-LRGG-AMC substrate, highest tested concentration 200 μM, listed as SBJ2–043): can only partially inhibit PLpro; Extent of PLpro inhibition in IC50 assay (in words) [3]: did not inhibit PLpro completely; IC50 [3]: 0.091 ± 0.024 µM |
| C=CCO/N=C1\c2ccccc2-c2nc(C#N)c(C#N)nc21 [DUB-IN-3] |  |  | Extent of PLpro inhibition in IC50 characterization (in words) [1]: only partial inhibition of PLpro; Extent of PLpro inhibition in IC50 assay (in words) [3]: simple inhibition curve that did not reach its plateau at the highest inhibitor concentration; IC50 [3]: > 10 µM |
| HBX19818 | > 100 | inhibited PLpro partially but at significant levels |  |
| CC(=O)c1cc([N+](=O)[O-])c(Sc2ccc(F)cc2F)s1 [P22077] | > 100 | inhibited PLpro partially but at significant levels |  |
| O=C1CC(=O)c2c(Cl)c(Cl)c(Cl)c(Cl)c21 [TCID] |  |  | Extent of PLpro inhibition in IC50 characterization (in words) [1]: can fully inhibit PLpro at 200 µM; PLpro inhibition in initial screening [2]: inhibited PLpro activity almost completely; IC50 [4]: 0.6 µM; IC50 [3]: 10.5 ± 2.7 µM |
| C=CC(=O)N1CC/C(=C\c2ccc(F)c([N+](=O)[O-])c2)C(=O)/C(=C/c2ccc(F)c([N+](=O)[O-])c2)C1 [VLX1570] | > 100 |  |  |
| Cc1ccc(S(=O)(=O)Nc2cc(C(F)(F)F)ccc2C(=O)Nc2nc(-c3ccccc3)cs2)cc1 [ML364] |  | significant quenching effects leading to negative signals | Extent of PLpro inhibition in IC50 characterization (in words) [1, 7]: did not show strong concentration-dependent inhibition of PLpro |
| CC(=O)c1cc([N+](=O)[O-])c(Sc2cccc(Cl)c2Cl)s1 [P005091] | > 100 | inhibited PLpro partially but at significant levels |  |
| N#Cc1nc2c(nc1C#N)-c1ccccc1/C2=N\OCc1ccccc1 [DUB-IN-1] | > 100 |  |  |
| O=C1c2ccccc2C(=O)c2oc(-c3cccnc3)nc21 [SJB3–019A] | 8.15 ± 3.59 | inhibited PLpro partially but at significant levels | Extent of PLpro inhibition in IC50 characterization (in words) [1, 7]: only partial inhibition of PLpro |
| CCO/N=C1\c2ccccc2-c2nc(C#N)c(C#N)nc21 [DUB-IN-2] |  |  | IC50 [1]: > 100 µM |
